#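 Dose response: 5 concentrations. Exposure: 48 h. Format: 96-well plates. Endpoint: linear interpolation; highest concentration if not reached. The concentration for full growth arrest is given as TGI.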
# Key:
# Experiment in all cases: NCI tumour cell line growth inhibition, 48 h
# MDA-MB-231 breast = test system: MDA-MB-231 breast
# K-562 leukemia = test system: K-562 leukemia
# SNB-75 CNS = test system: SNB-75 CNS
# HL-60(TB) leukemia = test system: HL-60(TB) leukemia
# SNB-19 CNS = test system: SNB-19 CNS
# LOX IMVI melanoma = test system: LOX IMVI melanoma
# HCC-2998 colon = test system: HCC-2998 colon
# UO-31 renal = test system: UO-31 renal
# M14 melanoma = test system: M14 melanoma
# T-47D breast = test system: T-47D breast
# UACC-62 melanoma = test system: UACC-62 melanoma
# 786-0 renal = test system: 786-0 renal
# CCRF-CEM leukemia = test system: CCRF-CEM leukemia
# MDA-MB-435 = test system: MDA-MB-435
# A549 NSCLC = test system: A549 NSCLC
# BT-549 breast = test system: BT-549 breast
# MCF7 breast = test system: MCF7 breast
# MDA-N = test system: MDA-N
# OVCAR-8 ovarian = test system: OVCAR-8 ovarian
# HOP-92 NSCLC = test system: HOP-92 NSCLC
# NCI/ADR-RES ovarian = test system: NCI/ADR-RES ovarian
# HCT-15 colon = test system: HCT-15 colon
# SR leukemia = test system: SR leukemia
# SK-MEL-2 melanoma = test system: SK-MEL-2 melanoma
# NCI-H460 lung = test system: NCI-H460 lung
# UACC-257 melanoma = test system: UACC-257 melanoma
# SF-295 CNS = test system: SF-295 CNS
# OVCAR-4 ovarian = test system: OVCAR-4 ovarian
# SK-MEL-5 melanoma = test system: SK-MEL-5 melanoma
# U251 CNS = test system: U251 CNS
# SN12C renal = test system: SN12C renal
# SK-MEL-28 melanoma = test system: SK-MEL-28 melanoma
# NCI-H522 lung = test system: NCI-H522 lung
# ACHN renal = test system: ACHN renal
# MALME-3M melanoma = test system: MALME-3M melanoma
# HT29 colon = test system: HT29 colon
# NCI-H23 lung = test system: NCI-H23 lung
# TK-10 renal = test system: TK-10 renal
# HCT-116 colon = test system: HCT-116 colon
# EKVX NSCLC = test system: EKVX NSCLC
# OVCAR-3 ovarian = test system: OVCAR-3 ovarian
# IGROV1 ovarian = test system: IGROV1 ovarian
# RXF 393 renal = test system: RXF 393 renal
# HS 578T breast = test system: HS 578T breast
# SF-268 CNS = test system: SF-268 CNS
# OVCAR-5 ovarian = test system: OVCAR-5 ovarian
# NCI-H226 lung = test system: NCI-H226 lung
# SK-OV-3 ovarian = test system: SK-OV-3 ovarian
# COLO 205 colon = test system: COLO 205 colon
# KM12 colon = test system: KM12 colon
# PC-3 prostate = test system: PC-3 prostate
# SF-539 CNS = test system: SF-539 CNS
# CAKI-1 renal = test system: CAKI-1 renal
# RPMI-8226 leukemia = test system: RPMI-8226 leukemia
# DU-145 prostate = test system: DU-145 prostate
# HOP-62 NSCLC = test system: HOP-62 NSCLC
structure (smiles),measurement,setting,value
O=c1oc2ccccc2c(Nc2ccc3c(c2)Sc2ccccc2O3)c1[N+](=O)[O-],TGI,MDA-MB-231 breast,47.9 µM
same,TGI,K-562 leukemia,57.9 µM
same,TGI,SNB-75 CNS,58.3 µM
same,TGI,HL-60(TB) leukemia,49.7 µM
same,TGI,SNB-19 CNS,> 100 µM
same,TGI,LOX IMVI melanoma,> 100 µM
same,TGI,HCC-2998 colon,39.9 µM
same,TGI,UO-31 renal,> 100 µM
same,TGI,M14 melanoma,> 100 µM
same,TGI,T-47D breast,69.7 µM
same,TGI,UACC-62 melanoma,> 100 µM
same,TGI,786-0 renal,53.1 µM
same,TGI,CCRF-CEM leukemia,81 µM
same,TGI,MDA-MB-435,> 100 µM
same,TGI,A549 NSCLC,> 100 µM
same,TGI,BT-549 breast,85.4 µM
same,TGI,MCF7 breast,43 µM
same,TGI,MDA-N,> 100 µM
same,TGI,OVCAR-8 ovarian,> 100 µM
same,TGI,HOP-92 NSCLC,71.2 µM
same,TGI,NCI/ADR-RES ovarian,> 100 µM
same,TGI,HCT-15 colon,> 100 µM
same,TGI,SR leukemia,57.3 µM
same,TGI,SK-MEL-2 melanoma,54.7 µM
same,TGI,NCI-H460 lung,55.3 µM
same,TGI,UACC-257 melanoma,55.7 µM
same,TGI,SF-295 CNS,60.6 µM
same,TGI,OVCAR-4 ovarian,> 100 µM
same,TGI,SK-MEL-5 melanoma,32.4 µM
same,TGI,U251 CNS,41.7 µM
same,TGI,SN12C renal,> 100 µM
same,TGI,SK-MEL-28 melanoma,73.3 µM
same,TGI,NCI-H522 lung,48 µM
same,TGI,ACHN renal,44.7 µM
same,TGI,MALME-3M melanoma,65.7 µM
same,TGI,HT29 colon,65.9 µM
same,TGI,NCI-H23 lung,86.7 µM
same,TGI,TK-10 renal,53.9 µM
same,TGI,HCT-116 colon,> 100 µM
same,TGI,EKVX NSCLC,90.6 µM
same,TGI,OVCAR-3 ovarian,47.5 µM
same,TGI,IGROV1 ovarian,> 100 µM
same,TGI,RXF 393 renal,61.9 µM
same,TGI,HS 578T breast,> 100 µM
same,TGI,SF-268 CNS,> 100 µM
same,TGI,OVCAR-5 ovarian,> 100 µM
same,TGI,NCI-H226 lung,76.5 µM
same,TGI,SK-OV-3 ovarian,> 100 µM
same,TGI,COLO 205 colon,32.1 µM
same,TGI,KM12 colon,94.3 µM
same,TGI,PC-3 prostate,38.9 µM
same,TGI,SF-539 CNS,85 µM
same,TGI,CAKI-1 renal,> 100 µM
same,TGI,RPMI-8226 leukemia,37.8 µM
same,TGI,DU-145 prostate,> 100 µM
same,TGI,HOP-62 NSCLC,> 100 µM

# From PubChem BioAssay (NCI)
